From patent publication US20190010533A1, “METHODS FOR SCREENING AND SELECTING TARGET AGENTS FROM MOLECULAR DATABASES” (The Methodist Hospital System, priority 2017, published 2019)
Where a name gives a salt, the structure may show the parent alone. Read-outs that look alike come from different tables or passages of the source.

Experiments:
[1] = system: canonical pathways; experiment: RNA-seq canonical pathway analysis of 3D AD #A5 cultures treated with anti-Aβ drugs; assay type: cell-based, human; conditions: AD #A5 DMSO vs treated
From the text: FIG. 7. […] Pearson correlations of global gene expression profile among 2D undifferentiated control ReN cells, 3D control (G2#B2on), AD #A5 (#A5, moderate Aβ42/40 ratio ˜0.2), AD #D4 (#D4, high Aβ42/40 ratio, ˜1.4), and AD #H10 (#H10, extra high Aβ42/40 ratio, ˜1.7). Units are log CPM. b. Volcano plots show −log10(FDR) vs log FC distribution for G2#B2 (control) vs AD #A5 (AD), AD #A5 DMSO vs AD #A5 BSI (BACE inhibitor, Ly2886721), and AD #A5 DMSO vs AD #A5 GSM (gamma secretase modulator, SGSM15606) transcriptomic signatures. […] Canonical pathway analysis between G2#B2 and AD #A5 (Ingenuity pathway analysis, Qiagen). d. Analysis of common canonical pathways. The pathway analysis among G2#B2 vs AD #A5, AD #A5 DMSO vs AD #A5 BSI, and AD #A5 DMSO vs AD #A5 GSM. Activation z-scores indicate that majority of decreased pathways in AD #A5 are restored by BSI and/or GSM treatments. e. […]
To examine the multiple single-clonal AD models, unbiased whole genome RNA-seq analyses were performed to compare gene expression profiles among the clonal AD models with different Aβ42/40 ratios, as compared to control 3D cultures and undifferentiated 2D control cells (FIG. 7a-d). […] Differential gene expression profile of 3D AD cultures were analyzed after treating anti-Aβ drugs (BACE1 inhibitor, Ly2886721; Gamma-secretase modulator (GSM), GSM15606) (FIG. 7b). […]

[2] = system: pTau; experiment: cell-based validation in reformatted high content version of AD-in-a-dish model; conditions: 26 predicted compounds tested
From the text: FIG. 2. Pilot SMART screen used 20 primary hits to identify 5 new compound hits that inhibit pTau (phospho-Tau or phosphorylated Tau).
Twenty-two of the 38 aforementioned screening hits had LINCS data covering the perturbation profiles for at least 4 cell lines. From these twenty-two hits, 2 were eliminated because no known drug candidates ranked high enough based on transcriptomic similarities to these two primary hits; and 3 others were removed upon inspection of the compound properties of the predictions they made, i.e., the predicted drugs may be toxic or unfit for systematic use. Thus, the 17 primary hits were used to initiate a pilot run using the SMART framework. The cMAP algorithm^7 was used to rank all compounds in the LINCSCloud, based on the similarity of transcriptomic profiles to each of the 17 primary hits. If any compound was determined by cMAP algorithm to have a similarity score larger than 90 to at least one of the primary hits, it was identified as a hit candidate. After filtering based on pharmacology features, 85 candidates predicted by 17 primary hits remained; 26 of these 85 compounds were purchased for validation after analysis for pharmacology and medical practice features.

[3] = system: pTau; experiment: primary high-content screening (HCS) for inhibition of pTau accumulation in neuron cells in 3D culture; assay type: cell-based
From the text: This workflow to identify the mechanisms underlying those screening hits can be used to effectively discover more compounds that can generate similar phenotype. As a proof of concept, the transcriptomic profiles hosted by the Broad Institute'[…] warehouse^28-30 through the NIH LINCS program were used in the initial study.

[4] = system: genes and pathways; experiment: whole genome RNAseq analysis after compound treatment versus control; assay type: cell-based
From the text: FIG. 10A-10B. […] PPI information was extracted from STRING database version 10.5 with the cutoff for confidence score at 0.4.
Given ebselen and leflunomide in FIG. 9, an unbiased whole genome RNAseq analysis was used to obtain transcriptomic profiles after the treatment of each compound and compare them separately to control conditions. For both treatments, a subset of genes and pathways show significant change (|log FC|>1.5) in the same direction over control condition. […] These 22 genes have 102 PPI pairs among them, and there are 7 genes directly connected to APP (coding Aβ) or MAPT (coding Tau).
It's worth noting that the enrichment of immune and inflammatory related pathway changes is consistent with the characteristics of the 3D cell model, as this system contains astrocytes, which is one of the brain innate immune cells. […] Also, neuroinflammatory pathways are highly unregulated in high Abeta42/40 lines (D4 and H10) as compared to A5 (similar to GA2) (data not shown).

[5] = system: p-tau (pSer396/Ser404); experiment: quantitative immunofluorescence staining in 3D AD models; assay type: cell-based, human; conditions: 5 μM for 3 weeks
From the text: (§1) FIG. 9. Validation of primary hit candidates. Primary hit candidates were confirmed using Western blot analysis (a) and quantitative immunofluorescence staining in 3D AD models with high Aβ42/40 ratios (#HReN and #A4H1) (b). PHF1 pSer396/Ser404 tau antibody was used to detect changes in phospho tau in 3D AD #HReN cells treated with DMSO vehicle, ebselen, or leflunomide.
(§2) In addition to MSD Mesoscale ELISA shown in FIG. 8, quantitative Western blot and immunofluorescence analysis were used to validate candidate drugs. […] Ebselen and leflunomide are compounds screened from original HCS screening of […] biologically active/FDA-approved drug library. […] Moreover, quantitative immunofluorescence staining was used to analyze p-tau changes after treating these compounds.

[6] = system: 3D AD models; experiment: cellular viability and neurite networks in the immunofluorescence study; assay type: cell-based, human; conditions: 5 μM for 3 weeks
From the text: as §2

[7] = system: insoluble p-tau species (pSer396/Ser404, pThr181); experiment: Western blot analysis in 3D AD models with high Aβ42/40 ratios; assay type: cell-based, human; conditions: various concentrations
From the text: as §1, §2

[8] = system: primary neurons; experiment: time-lapse synaptogenesis assay (FM1-43 staining, KCl de-staining); assay type: cell-based
Experimental: FIG. 6. Time-lapse synaptogenesis assay identifies pre-synaptic hyperactivity caused by thiorphan's treatments.
A high content screening (HCS) is carried out on existing 3,000 known drugs and compounds to systematically characterize the effects of known drugs or bioactive compounds on the Parkinson's Disease (PD) induced pluripotent stem (iPS) cell model, with the aim to identify effective hits that can be validated in PD mouse models. […] Cells were stained with FM1-43 (FIG. 6A) and de-stained by KCl stimulation (FIG. 6B). Time-lapse imaging was carried out from the dye uptake until the synapses were completely de-stained. […] A similar assay is applied in iPS cells as well as neuron cell models for PD. In addition to using the prevalence of synaptogenesis as the main readout for the high content screening (HCS), the heterogeneous nature of stem cell differentiation is addressed by identifying and quantifying the prevalence of novel phenotypes other than stem cell and synaptogenesis based on morphological features. Such consideration of cell population heterogeneity brings deeper insight in the HCS and can help identify potential compounds that are causing specific type of differentiations benefiting cure of PD.

Molecule: NC1=N[C@@]2(c3cc(NC(=O)c4ccc(F)cn4)ccc3F)COC[C@H]2CS1 [Ly2886721]
- pathways decreased in AD #A5 after treatment (activation z-scores) [1]: restored

Molecule: C1CCC(C(CC2CCCCN2)C2CCCCC2)CC1 (stereo not shown) [Perhexiline, perhexiline maleate]
- inhibition of pTau in validation [2]: successful predictions

Molecule: Nc1ccc(-c2nc3ccc(-c4nc5ccc(N)cc5[nH]4)cc3[nH]2)cc1 [Ro90-7501]
- inhibition of pTau accumulation (primary screen hit status) [3]: primary hits

Molecule: COc1nc(-c2cc(C)c(NC(C)c3ccc(F)cc3)nn2)ccc1-n1cnc(C)c1 (stereo not shown) [SGSM15606]
- pathways decreased in AD #A5 after treatment (activation z-scores) [1]: restored

Molecule: C/C(=C\c1ccc(C(=O)O)cc1)c1ccc2c(c1)C(C)(C)CCC2(C)C [TTNPB]
- inhibition of pTau accumulation (primary screen hit status) [3]: primary hit

Molecule: Oc1c(Cl)cc(Cl)c2cccnc12 [chloroxine]
- inhibition of pTau in validation [2]: validated hits

Molecule: Cc1oncc1C(=O)Nc1ccc(C(F)(F)F)cc1 [leflunomide]
- pathways changed after treatment ([4]; 5 of 6 pathways connected to 12 down-regulated genes): significantly down-regulated
- genes with significant change versus control ([4]; |log FC|>1.5, shared by both treatments): 15 down-regulated and 7 up-regulated genes
- p-tau (pSer396/Ser404) accumulation [5]: robustly decreased
- cellular viability and neurite networks [6]: without affecting
- insoluble p-tau species (pSer396/Ser404, pThr181) [7]: significantly decreased

Molecule: CC[N+](CC)(CC)CCOc1ccc(/C=C/c2ccccc2)cc1 [mg624]
- inhibition of pTau accumulation (primary screen hit status) [3]: top-3 hits

Molecule: N=C(N)c1ccc(OCCCCCOc2ccc(C(=N)N)cc2)cc1 [pentamidine]
- inhibition of pTau accumulation (primary screen hit status) [3]: top-3 hits

Molecule: O=C(O)CNC(=O)C(CS)Cc1ccccc1 (stereo not shown) [thiorphan]
- pre-synaptic activity (FM dye uptake, automatic image quantification) [8]: causes pre-synaptic hyperactivity

Molecule: ivermectin
- inhibition of pTau accumulation (primary screen hit status) [3]: top-3 hits
- inhibition of pTau accumulation (primary screen hit status) ([3]; listed as Ivermectin): most significant phenotype
